The values below come from patent US20080269251A1, “Substituted Pyrazinone Derivatives as Alpha2C-Adrenoreceptor Antagonists” (priority 2005, published 2008).

Assay [1] concerns the target T1, human adrenergic-α2A receptor (Homo sapiens, UniProt P08913).
T1 construct: expressed in transfected cells; host or cells: CHO cells, stably transfected; membrane preparation
T1 sequence (P08913 1-465): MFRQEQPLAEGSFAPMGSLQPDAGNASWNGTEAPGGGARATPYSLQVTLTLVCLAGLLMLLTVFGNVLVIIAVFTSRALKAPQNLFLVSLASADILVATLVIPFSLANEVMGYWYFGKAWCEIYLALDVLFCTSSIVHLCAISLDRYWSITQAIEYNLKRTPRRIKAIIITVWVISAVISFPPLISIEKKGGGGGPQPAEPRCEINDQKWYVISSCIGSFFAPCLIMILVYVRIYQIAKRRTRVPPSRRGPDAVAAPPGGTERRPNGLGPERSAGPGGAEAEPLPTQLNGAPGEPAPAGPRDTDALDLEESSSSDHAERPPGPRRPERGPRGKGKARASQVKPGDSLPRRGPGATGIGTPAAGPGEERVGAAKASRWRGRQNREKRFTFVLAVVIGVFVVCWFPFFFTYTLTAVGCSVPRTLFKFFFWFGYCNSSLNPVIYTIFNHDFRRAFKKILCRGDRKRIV
Briefly: Radioligand binding experiment for hα2A-adrenergic receptor ([3H]raulwolscine). The following applies: [3H]raulwolscine 1 nM, 60 minutes at 25° C.; for IC50: read-out: h-α2A pIC50 (converted). On the procedure:
(§1) The interaction of the compounds of Formula (I) with α2C-adrenoceptor receptors was assessed in in vitro radioligand binding experiments. In general, a low concentration of a radioligand with a high binding affinity for a particular receptor or transporter is incubated with a sample of a tissue preparation enriched in a particular receptor or transporter or with a preparation of cells expressing cloned human receptors in a buffered medium. During the incubation, the radioligand binds to the receptor or transporter. When equilibrium of binding is reached, the receptor bound radioactivity is separated from the non-bound radioactivity, and the receptor- or transporter-bound activity is counted. The interaction of the test compounds with the receptor is assessed in competition binding experiments. Various concentrations of the test compound are added to the incubation mixture containing the receptor- or transporter preparation and the radioligand. The test compound in proportion to its binding affinity and its concentration inhibits binding of the radioligand. The radioligand used for […] receptor binding was [^3H]-raulwolscine.
(§2) CHO cells, stabile transfected with human adrenergic-α2A, -α2B or α2C receptor cDNA, were cultured in Dulbecco's Modified Eagle's Medium (DMEM)/Nutrient mixture Ham's F12 (ratio 1:1)(Gibco, Gent-Belgium) supplemented with 10% heat inactivated fetal calf serum (Life Technologies, Merelbeke-Belgium) and antibiotics (100 IU/ml penicillin G, 100 μg/ml streptomycin sulphate, 110 μg/ml pyruvic acid and 100 μg/ml L-glutamine). One day before collection, cells were induced with 5 mM sodiumbutyrate. Upon 80-90% of confluence, cells were scraped in phosphate buffered saline without Ca^2+ and Mg^2+ and collected by centrifugation at 1500×g for 10 minutes. The cells were homogenised in Tris-HCl 50 mM using an Ultraturrax homogenizer and centrifuged for 10 minutes at 23,500×g. The pellet was washed once by resuspension and rehomogenization and the final pellet was resuspended in Tris-HCl, divided in 1 ml aliquots and stored at −70° C.
(§3) Membranes were thawed and re-homogenized in incubation buffer (glycylglycine 25 mM, pH 8.0). In a total volume of 500 μl, 2-10 μg protein was incubated with [^3H]raulwolscine (NET-722) (New England Nuclear, USA) (1 nM final concentration) with or without competitor for 60 minutes at 25° C. followed by rapid filtration over GF/B filter using a Filtermate196 harvester (Packard, Meriden, Conn.). Filters were rinsed extensively with ice-cold rinsing buffer (Tris-HCl 50 mM pH 7.4). Filter-bound radioactivity was determined by scintillation counting in a Topcount (Packard, Meriden, Conn.) and results were expressed as counts per minute (cpm). Non-specific binding was determined in the presence of 1 μM oxymetazoline for hα2A- and hα2B receptors and 1 μM spiroxatrine for hα2C receptors.
(§4) Data from assays in the presence of compound were calculated as a percentage of total binding measured in the absence of test compound. Inhibition curves, plotting percent of total binding versus the log value of the concentration of the test compound, were automatically generated, and sigmoidal inhibition curves were fitted using non-linear regression. The pIC50 values of test compounds were derived from individual curves.

In assay [2] the target is T2, human adrenergic-α2C receptor (Homo sapiens, UniProt P18825).
T2 construct: expressed in transfected cells; host or cells: CHO cells, stably transfected; membrane preparation
T2 sequence (P18825 1-462): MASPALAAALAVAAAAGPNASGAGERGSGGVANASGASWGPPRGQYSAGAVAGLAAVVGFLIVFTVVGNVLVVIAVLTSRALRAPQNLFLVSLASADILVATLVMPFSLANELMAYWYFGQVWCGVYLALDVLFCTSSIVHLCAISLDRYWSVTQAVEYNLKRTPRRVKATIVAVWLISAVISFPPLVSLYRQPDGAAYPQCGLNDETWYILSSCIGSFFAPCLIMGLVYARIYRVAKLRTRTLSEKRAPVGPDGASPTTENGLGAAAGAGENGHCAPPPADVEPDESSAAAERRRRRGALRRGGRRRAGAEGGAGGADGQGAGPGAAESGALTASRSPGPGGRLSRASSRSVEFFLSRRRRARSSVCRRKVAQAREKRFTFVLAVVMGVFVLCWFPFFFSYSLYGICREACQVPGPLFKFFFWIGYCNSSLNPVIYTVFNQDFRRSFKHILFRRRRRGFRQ
Briefly: Radioligand binding experiment for hα2C-adrenoceptor ([3H]raulwolscine). The following applies: [3H]raulwolscine 1 nM, 60 minutes at 25° C.; for IC50: read-out: h-α2C pIC50 (converted). On the procedure:
as §1, §2, §3, §4

The target in a further assay is T3, 5HT-transporter (Homo sapiens, UniProt P31645).
T3 construct: Human platelet membranes (Oceanix Biosciences Corporation, Hanover, Md., USA) were thawed; tissue Oceanix Biosciences Corporation, Hanover, Md., USA; host or cells: human platelet membranes
T3 sequence (P31645 whole entry): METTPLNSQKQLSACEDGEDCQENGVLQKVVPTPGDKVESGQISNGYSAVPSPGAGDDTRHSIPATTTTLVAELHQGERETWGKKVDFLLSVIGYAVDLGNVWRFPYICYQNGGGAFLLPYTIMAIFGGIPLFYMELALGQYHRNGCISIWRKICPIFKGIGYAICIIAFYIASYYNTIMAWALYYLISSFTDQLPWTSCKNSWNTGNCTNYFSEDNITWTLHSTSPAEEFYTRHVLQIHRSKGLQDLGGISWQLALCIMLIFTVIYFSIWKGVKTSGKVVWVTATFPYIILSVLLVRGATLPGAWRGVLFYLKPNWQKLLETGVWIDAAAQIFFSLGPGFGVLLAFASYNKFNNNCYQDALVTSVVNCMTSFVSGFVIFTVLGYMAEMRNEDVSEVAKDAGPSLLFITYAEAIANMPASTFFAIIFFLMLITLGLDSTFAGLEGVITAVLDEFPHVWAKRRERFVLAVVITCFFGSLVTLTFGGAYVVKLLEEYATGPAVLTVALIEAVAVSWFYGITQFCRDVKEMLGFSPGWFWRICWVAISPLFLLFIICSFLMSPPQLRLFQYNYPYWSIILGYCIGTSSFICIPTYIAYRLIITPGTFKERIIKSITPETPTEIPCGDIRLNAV
Description: Binding experiment for the 5HT-transporter ([3H]paroxetine, human platelet membranes). As to conditions: [3H]paroxetine 0.5 nM, 60 min at 25° C.; for IC50: read-out: h-5HTT pIC50 (converted). The procedure: as §1
Human platelet membranes (Oceanix Biosciences Corporation, Hanover, Md., USA) were thawed, diluted in buffer (Tris-HCl 50 mM, 120 mM NaCl and 5 mM KCl) and quickly (max 3 s) homogenised with an Ultraturrax homogenizer. […] Incubation was stopped by rapid filtration of the incubation mixture over GF/B filters, pre-wetted with 0.1% polyethyleneamine, using a Filtermate196 harvester (Packard, Meriden, Conn.). Filters were rinsed extensively with ice-cold buffer and radioactivity on the filters was counted in a Topcount liquid scintillation counter (Packard, Meriden, Conn.). Data were expressed as cpm. Imipramine (at 1 μM final concentration) was used to determine the non-specific binding.
as §4

Bounds are passed on as bounds.

On to `O=C(NCc1ccc(-n2ccnc(NC3CCN(Cc4ccc5ccccc5c4)CC3)c2=O)cc1)Nc1cc(Cl)ccc1Cl` [1-54], for which the “h-α2A pIC50” value in assay [1] amounted to 6.0. Besides, the “h-α2C pIC50” value in assay [2] was 6.7. Moreover, the “h-5HTT pIC50” value on 5HT-transporter is recorded as 6.8.
As for `Cn1ccnc1CN1CCc2ccc(-n3ccnc(NC4CCN(Cc5ccc6ccccc6c5)CC4)c3=O)cc2C1` [6-15], the IC50 in assay [1] is 100 nM; in assay [2] it was 3.98 nM; at 5HT-transporter it was 10 nM.
In the case of `O=C(Cn1ccnc(NC2CCN(Cc3ccc4ccccc4c3)CC2)c1=O)N1CCN(c2ccccc2)CC1` [2-05], the IC50 was 251 nM in assay [1], 39.8 nM in assay [2] and 200 nM on 5HT-transporter.
With `CCCC(=O)N(Cc1ccc(-n2ccnc(NC3CCN(Cc4ccc5ccccc5c4)CC3)c2=O)cc1)C(=O)CCC` [1-29], the IC50 was 398 nM in assay [1], 39.8 nM in assay [2] and 20 nM at 5HT-transporter.
Consider `CN(C(=O)Cn1ccnc(NC2CCN(Cc3ccc4ccccc4c3)CC2)c1=O)c1ccccc1` [1-63], for which the results for the IC50 (in assay [1]; in assay [2]; on 5HT-transporter) were 158 nM, 25.1 nM and 63.1 nM, respectively.
Consider `O=C(Cn1ccnc(NC2CCN(Cc3ccc4ccccc4c3)CC2)c1=O)Nc1ccc(F)cc1` [1-65], for which the IC50 is 158 nM in assay [1], 39.8 nM in assay [2] and 158 nM at 5HT-transporter.
Turning to `O=C(NCc1ccccc1)NCc1ccc(-n2ccnc(NC3CCN(Cc4ccc5ccccc5c4)CC3)c2=O)cc1` [1-48], the IC50 in assay [1] was 316 nM; in assay [2] it was 39.8 nM; on 5HT-transporter it was 10 nM.
The like results for `O=c1c(NC2CCN(Cc3ccc4ccccc4c3)CC2)nccn1-c1ccc(CNCc2ccccn2)cc1` [1-90] were, in that order, 251 nM, 12.6 nM and 7.94 nM.
The like results for `COC(=O)CCCC(=O)NCc1ccc(-n2ccnc(NC3CCN(Cc4ccc5ccccc5c4)CC3)c2=O)cc1` [1-37] were, in that order, 631 nM, 39.8 nM and 12.6 nM.
Turning to `CCOC(=O)CCCCn1ccnc(NC2CCN(Cc3ccc4ccccc4n3)CC2)c1=O` [9-14], the IC50 was 631 nM in assay [1], 126 nM in assay [2] and 3980 nM at 5HT-transporter.
In the same order, the values of `O=c1c(NC2CCN(Cc3ccc4ccccc4c3)CC2)nccn1-c1ccc(CNCCF)c(F)c1` [1-08] are 126 nM, 7.94 nM and 10 nM.
The like results for `O=c1[nH]ncn1CCCn1ccnc(NC2CCN(Cc3ccc4ccccc4c3)CC2)c1=O` [6-11] were, in that order, 794 nM, 100 nM and 126 nM.
Take `COC(=O)CCn1ccnc(NC2CCN(Cc3ccc4ccccc4c3)CC2)c1=O` [3-04]: the IC50 is 1000 nM in assay [1], 79.4 nM in assay [2] and 398 nM at 5HT-transporter.
In the same order, the values of `COCCNCc1ccc(-n2ccnc(NC3CCN(Cc4ccc5ccccc5c4)CC3)c2=O)cc1` [1-22] are 200 nM, 15.8 nM and 15.8 nM.
In the same order, the values of `NCCCn1ccnc(NC2CCN(Cc3ccc4ccccc4c3)CC2)c1=O` [1-03] are 200 nM, 50.1 nM and 200 nM.
Consider `CCOC(=O)CCCCn1ccnc(NC2CCN(Cc3ccc4ccccc4c3)CC2)c1=O` [3-08], for which the values for the IC50 (in assay [1]; in assay [2]; at 5HT-transporter) were 79.4 nM, 12.6 nM and 10 nM, respectively.
For `CCCn1ccnc(NC2CCN(Cc3ccc4ccccc4c3)CC2)c1=O` [5-02], the IC50 in assay [1] is 158 nM; in assay [2] it was 63.1 nM; on 5HT-transporter, 100 nM.
In the same order, the values of `O=c1c(NC2CCN(Cc3ccc4ccccc4c3)CC2)nccn1-c1ccc2cc[nH]c2c1` [6-03] are 50.1 nM, 39.8 nM and 50.1 nM.
The like results for `COC(CCn1ccnc(NC2CCN(Cc3ccc4ccccc4c3)CC2)c1=O)OC` [4-03] were, in that order, 1000 nM, 100 nM and 316 nM.
As to `CN(C)C(=O)Cn1ccnc(NC2CCN(Cc3ccc4ccccc4c3)CC2)c1=O` [1-15], the IC50 in assay [1] is 398 nM; in assay [2], 126 nM; on 5HT-transporter, 3160 nM.
In the same order, the values of `COCCC(=O)NCc1ccc(-n2ccnc(NC3CCN(Cc4ccc5ccccc5c4)CC3)c2=O)cc1` [1-30] are 316 nM, 31.6 nM and 15.8 nM.
On to `CN1CCN(Cc2ccc(-n3ccnc(NC4CCN(Cc5ccc6ccccc6c5)CC4)c3=O)cc2)CC1` [2-02], for which, in assay [1], the “h-α2A pIC50” value worked out at 6.9. Further, the “h-α2C pIC50” value in assay [2] came out at 7.8. In addition, at 5HT-transporter, the “h-5HTT pIC50” value is recorded as 8.3.
`O=C1c2ccccc2C(=O)N1CCCn1ccnc(NC2CCN(Cc3cnc4ccccc4c3)CC2)c1=O` [9-27]: the IC50 in assay [1] was above 10000 nM; in assay [2] it was 794 nM; at 5HT-transporter it was 631 nM.
As for `O=c1[nH]c(-c2cccc(Br)c2)c(Cl)nc1NC1CCN(Cc2ccc3ccccc3c2)CC1` [7-01], the IC50 is 1580 nM in assay [1], 794 nM in assay [2] and 501 nM at 5HT-transporter.
The like results for `O=C(Cn1ccnc(NC2CCN(Cc3ccc4ccccc4c3)CC2)c1=O)N1CCC(C(F)(F)F)CC1` [2-16] were, in that order, 501 nM, 126 nM and 1260 nM.
The like results for `O=c1c(NC2CCN(Cc3ccc4ccccc4n3)CC2)nccn1CCOc1ccccc1` [9-15] were, in that order, 631 nM, 158 nM and 631 nM.
For `CNCCCn1ccnc(NC2CCN(Cc3ccc4ccccc4c3)CC2)c1=O` [1-04], the IC50 in assay [1] is 251 nM; in assay [2], 25.1 nM; at 5HT-transporter, 251 nM.
